This test has as its system IL-8 mRNA. Put plainly: IL-8 mRNA assay (Quantigene reagent set) quantified by automated image processing. Type of test: cell-based. The source says:
Through use of inexpensive reagents and simple protocols a transcription assay can be conducted in which mRNA is synthesized and then captured. The location and number of individual mRNA species captured can be visualized in cells and tissue sections by fluorescence-based detection and quantified by automated image processing.
For visualization in images, a probe is used which binds to target mRNA species with very high specificity. It is possible to generate probes to virtually any known sequence. Preferably, such probes are hybridized to the target mRNAs in cell or tissue samples that have been fixed and permeabilized. A fluorescent reagent may then added, which binds to the probe. When slides and well plates containing cultured cells are processed in this manner, and viewed with fluorescence microscopy, bright spots (mRNA loci) are apparent that correspond to individual copies of the target mRNA.
To quantify gene transcription, the mRNA loci can be individually counted for each cell. While this can be done manually, by loading such images in a general purpose image analysis program, manual analysis is very laborious and time consuming due to fatigue and inconsistency between researchers. A convenient, user-friendly, and accurate alternative may be provided by an image processing algorithm, which may be in the form of a Windows® compatible, Java-based software system, specifically engineered for this application. With reference to FIG. 1, for example, such a system identifies individual cells, and quantifies the number of mRNA loci on a per cell basis in fields of view imaged for nuclei (shown in blue with DAPI staining), and for mRNA (shown in green using fluorescent reagents). Results produced by such a system may be input into a quantitative modeling system (such as a spreadsheet process) in order to organize, quantify, model, and present the results for interpretation and analysis.
FIG. 2 illustrates the performance of an mRNA assay and quantification by an image processing algorithm in an experimental setting, using a Quantigene® reagent set available from Panomics, Inc., Fremont, Calif. and an automated image processing system available from Vala Sciences, Inc. In this assay, cells were exposed to different concentrations of phorbol 12-myristate 13-acetate (PMA), and analyzed for the copy number of IL-8 mRNA. For control cells (exposed to 0 PMA), essentially no IL-8 mRNA were detected (0.05/cell). In contrast, exposure to PMA led to a dramatic increase in the presence of the loci with an EC50 of between 0.1 and 1 ng/ml PMA.
FIG. 6 illustrates in a general way how an image processing algorithm may operate to obtain results from images in the source folder. An example of one such algorithm designed for processing images of mRNA transcription is the CyteSeer™-ViewRNA process available from Vala Sciences, Inc. The algorithm starts with a nuclear image (such as those in the left panels of FIGS. 1 and 2), and identifies all of the nuclei within the field of view. A nuclear mask for each cell is established. […] One or more sets of experimental data may then be calculated by the automated image processing system, on a per cell basis, using the result images or masks. Preferably, these experimental data are presented and arranged according to a file convention and are placed into one or more files that can be transported, loaded, or otherwise made available to a quantitative modeling system (for example, a spreadsheet process). […]

Each structure is given as a SMILES string. A value given as a limit tells only on which side of the number the result lay.

`CCCCCCCCCCCCCC(=O)O[C@@H]1[C@@H](C)[C@@]2(O)[C@@H](C=C(CO)C[C@]3(O)C(=O)C(C)=C[C@@H]23)[C@@H]2C(C)(C)[C@]12OC(C)=O` [PMA, phorbol 12-myristate 13-acetate]: the RNA spot count (0.1 ng/ml PMA, well E15) stood at 14.3 spots/cell and the RNA spot count (1 ng/ml PMA, well G15) is recorded as 84.1 spots/cell. Further, the “fold increase in Area Rm” value (1 ng/ml PMA vs control well C15) is listed as 3000 fold. For the same compound, the “Area Rm, the average area, per cell, of the RNA mask” value (1 ng/ml PMA, well G15 (control well C15 <1)) is given as greater than 1100. The “fold increase in TII Ri Rm, the total intensity of the spots/cell” value (PMA vs control (Table in FIG. 12)) is 8000 fold.
